Experimental data as given in patent EP0726263A2, “Herbicidal (1,3,4)oxadiazoles and thiadiazoles” (American Cyanamid Company, priority 1995, dated 1996).

Tests used:
Format in all cases: in vivo
Glycine max [1] = test: Herbicidal activity, postemergence test; conditions: post; sprayed onto seedling plants, 800 g of active material per hectare; evaluated 2 weeks after treatment
Outline: (§1)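 Spray dose 800 g a.i./ha in 900 L/ha; acetone stock with 0.4% Triton X-155, water-diluted. Pre: sown loam soil, read at 3 wk. Post: seedling plants, read at 2 wk. Visual 0-9 rating vs untreated.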

Gossypium hirsutum [2] = test: Herbicidal activity, postemergence test; conditions: post; sprayed onto seedling plants, 800 g of active material per hectare; evaluated 2 weeks after treatment
Outline: as §1

Galium aparine [3] = test: Herbicidal activity, postemergence test; conditions: post; sprayed onto seedling plants, 800 g of active material per hectare; evaluated 2 weeks after treatment
Outline: as §1

Lamium purpureum [4] = test: Herbicidal activity, postemergence test; conditions: post; sprayed onto seedling plants, 800 g of active material per hectare; evaluated 2 weeks after treatment
Outline: as §1

Amaranthus retroflexus [5] = test: Herbicidal activity, postemergence test; conditions: post; sprayed onto seedling plants, 800 g of active material per hectare; evaluated 2 weeks after treatment
Outline: as §1

Hordeum vulgare [6] = test: Herbicidal activity, postemergence test; conditions: post; sprayed onto seedling plants, 800 g of active material per hectare; evaluated 2 weeks after treatment
Outline: as §1

Triticum aestivum [7] = test: Herbicidal activity, postemergence test; conditions: post; sprayed onto seedling plants, 800 g of active material per hectare; evaluated 2 weeks after treatment
Outline: as §1

Ambrosia artemisifolia [8] = test: Herbicidal activity, postemergence test; conditions: post; sprayed onto seedling plants, 800 g of active material per hectare; evaluated 2 weeks after treatment
Outline: as §1

Helianthus annuus [9] = test: Herbicidal activity, postemergence test; conditions: post; sprayed onto seedling plants, 800 g of active material per hectare; evaluated 2 weeks after treatment
Outline: as §1

Stellaria media [10] = test: Herbicidal activity, postemergence test; conditions: post; sprayed onto seedling plants, 800 g of active material per hectare; evaluated 2 weeks after treatment
Outline: as §1

Viola arvensis [11] = test: Herbicidal activity, postemergence test; conditions: post; sprayed onto seedling plants, 800 g of active material per hectare; evaluated 2 weeks after treatment
Outline: as §1

Echinochloa crus-galli [12] = test: Herbicidal activity, postemergence test; conditions: post; sprayed onto seedling plants, 800 g of active material per hectare; evaluated 2 weeks after treatment
Outline: as §1

Ipomoea hederacea [13] = test: Herbicidal activity, postemergence test; conditions: post; sprayed onto seedling plants, 800 g of active material per hectare; evaluated 2 weeks after treatment
Outline: as §1

Veronica persica [14] = test: Herbicidal activity, postemergence test; conditions: post; sprayed onto seedling plants, 800 g of active material per hectare; evaluated 2 weeks after treatment
Outline: as §1

Alopecurus myosuroides [15] = test: Herbicidal activity, postemergence test; conditions: post; sprayed onto seedling plants, 800 g of active material per hectare; evaluated 2 weeks after treatment
Outline: as §1

Abutilon theophrasti [16] = test: Herbicidal activity, postemergence test; conditions: post; sprayed onto seedling plants, 800 g of active material per hectare; evaluated 2 weeks after treatment
Outline: as §1

Zea mays [17] = test: Herbicidal activity, postemergence test; conditions: post; sprayed onto seedling plants, 800 g of active material per hectare; evaluated 2 weeks after treatment
Outline: as §1

Setaria viridis [18] = test: Herbicidal activity, postemergence test; conditions: post; sprayed onto seedling plants, 800 g of active material per hectare; evaluated 2 weeks after treatment
Outline: as §1

Glycine max [19] = test: Herbicidal activity, preemergence test; conditions: pre; sprayed onto soil, 800 g of active material per hectare; evaluated 3 weeks after treatment
Outline: as §1

Gossypium hirsutum [20] = test: Herbicidal activity, preemergence test; conditions: pre; sprayed onto soil, 800 g of active material per hectare; evaluated 3 weeks after treatment
Outline: as §1

Galium aparine [21] = test: Herbicidal activity, preemergence test; conditions: pre; sprayed onto soil, 800 g of active material per hectare; evaluated 3 weeks after treatment
Outline: as §1

Lamium purpureum [22] = test: Herbicidal activity, preemergence test; conditions: pre; sprayed onto soil, 800 g of active material per hectare; evaluated 3 weeks after treatment
Outline: as §1

Amaranthus retroflexus [23] = test: Herbicidal activity, preemergence test; conditions: pre; sprayed onto soil, 800 g of active material per hectare; evaluated 3 weeks after treatment
Outline: as §1

Hordeum vulgare [24] = test: Herbicidal activity, preemergence test; conditions: pre; sprayed onto soil, 800 g of active material per hectare; evaluated 3 weeks after treatment
Outline: as §1

Triticum aestivum [25] = test: Herbicidal activity, preemergence test; conditions: pre; sprayed onto soil, 800 g of active material per hectare; evaluated 3 weeks after treatment
Outline: as §1

Ambrosia artemisifolia [26] = test: Herbicidal activity, preemergence test; conditions: pre; sprayed onto soil, 800 g of active material per hectare; evaluated 3 weeks after treatment
Outline: as §1

Helianthus annuus [27] = test: Herbicidal activity, preemergence test; conditions: pre; sprayed onto soil, 800 g of active material per hectare; evaluated 3 weeks after treatment
Outline: as §1

Stellaria media [28] = test: Herbicidal activity, preemergence test; conditions: pre; sprayed onto soil, 800 g of active material per hectare; evaluated 3 weeks after treatment
Outline: as §1

Viola arvensis [29] = test: Herbicidal activity, preemergence test; conditions: pre; sprayed onto soil, 800 g of active material per hectare; evaluated 3 weeks after treatment
Outline: as §1

Echinochloa crus-galli [30] = test: Herbicidal activity, preemergence test; conditions: pre; sprayed onto soil, 800 g of active material per hectare; evaluated 3 weeks after treatment
Outline: as §1

Ipomoea hederacea [31] = test: Herbicidal activity, preemergence test; conditions: pre; sprayed onto soil, 800 g of active material per hectare; evaluated 3 weeks after treatment
Outline: as §1

Veronica persica [32] = test: Herbicidal activity, preemergence test; conditions: pre; sprayed onto soil, 800 g of active material per hectare; evaluated 3 weeks after treatment
Outline: as §1

Alopecurus myosuroides [33] = test: Herbicidal activity, preemergence test; conditions: pre; sprayed onto soil, 800 g of active material per hectare; evaluated 3 weeks after treatment
Outline: as §1

Abutilon theophrasti [34] = test: Herbicidal activity, preemergence test; conditions: pre; sprayed onto soil, 800 g of active material per hectare; evaluated 3 weeks after treatment
Outline: as §1

Zea mays [35] = test: Herbicidal activity, preemergence test; conditions: pre; sprayed onto soil, 800 g of active material per hectare; evaluated 3 weeks after treatment
Outline: as §1

Setaria viridis [36] = test: Herbicidal activity, preemergence test; conditions: pre; sprayed onto soil, 800 g of active material per hectare; evaluated 3 weeks after treatment
Outline: as §1

C[C@H](NC(=O)c1nnc(-c2ccccc2)o1)c1ccccc1 [Example 4]
GLXMA control rating (0-9) (Glycine max [1]): 8 (approaching complete kill)
GOSHI control rating (0-9) (Gossypium hirsutum [2]): 9 (complete kill)
GALAP control rating (0-9) (Galium aparine [3]): 8 (approaching complete kill)
LAMPU control rating (0-9) (Lamium purpureum [4]): 6 (herbicidal effect)
AMARE control rating (0-9) (Amaranthus retroflexus [5]): 9 (complete kill)
HORVW control rating (0-9) (Hordeum vulgare [6]): 5 (definite injury)
TRZAW control rating (0-9) (Triticum aestivum [7]): 4 (injury)
AMBEL control rating (0-9) (Ambrosia artemisifolia [8]): 9 (complete kill)
HELAN control rating (0-9) (Helianthus annuus [9]): 9 (complete kill)
STEME control rating (0-9) (Stellaria media [10]): 9 (complete kill)
VIOAR control rating (0-9) (Viola arvensis [11]): 7 (good herbicidal effect)
ECHCG control rating (0-9) (Echinochloa crus-galli [12]): 5 (definite injury)
IPOHE control rating (0-9) (Ipomoea hederacea [13]): 9 (complete kill)
VERPE control rating (0-9) (Veronica persica [14]): 9 (complete kill)
ALOMY control rating (0-9) (Alopecurus myosuroides [15]): 4 (injury)
ABUTH control rating (0-9) (Abutilon theophrasti [16]): 9 (complete kill)
ZEAMX control rating (0-9) (Zea mays [17]): 3 (moderate effect)
SETVI control rating (0-9) (Setaria viridis [18]): 8 (approaching complete kill)
GLXMA control rating (0-9) (Glycine max [19]): 0 (no effect)
GOSHI control rating (0-9) (Gossypium hirsutum [20]): 0 (no effect)
GALAP control rating (0-9) (Galium aparine [21]): 0 (no effect)
LAMPU control rating (0-9) (Lamium purpureum [22]): 3 (moderate effect)
AMARE control rating (0-9) (Amaranthus retroflexus [23]): 8 (approaching complete kill)
HORVW control rating (0-9) (Hordeum vulgare [24]): 0 (no effect)
TRZAW control rating (0-9) (Triticum aestivum [25]): 0 (no effect)
AMBEL control rating (0-9) (Ambrosia artemisifolia [26]): 0 (no effect)
HELAN control rating (0-9) (Helianthus annuus [27]): 0 (no effect)
STEME control rating (0-9) (Stellaria media [28]): 6 (herbicidal effect)
VIOAR control rating (0-9) (Viola arvensis [29]): 6 (herbicidal effect)
ECHCG control rating (0-9) (Echinochloa crus-galli [30]): 4 (injury)
IPOHE control rating (0-9) (Ipomoea hederacea [31]): 0 (no effect)
VERPE control rating (0-9) (Veronica persica [32]): 6 (herbicidal effect)
ALOMY control rating (0-9) (Alopecurus myosuroides [33]): 0 (no effect)
ABUTH control rating (0-9) (Abutilon theophrasti [34]): 1 (trace effect)
ZEAMX control rating (0-9) (Zea mays [35]): 1 (trace effect)
SETVI control rating (0-9) (Setaria viridis [36]): 4 (injury)
